Laboratory results published in paper PMC10761647, “β-carboline derivative Z86 attenuates colorectal cancer cell proliferation and migration by directly targeting PI3K” (Natural Products and Bioprospecting, 2024).
pIC50: −log10 of the molar value.

Target: T1, PI3Kα (Homo sapiens, UniProt P42336)
T1 construct: gene PIK3CA
Assay: PI3-Kinase Activity ELISA (PIP3 production) with purified PI3Kα; supported by CETSA and DARTS in HCT116 and SW480 cells/lysates
Assay type: biochemical

T1 sequence (P42336 whole entry): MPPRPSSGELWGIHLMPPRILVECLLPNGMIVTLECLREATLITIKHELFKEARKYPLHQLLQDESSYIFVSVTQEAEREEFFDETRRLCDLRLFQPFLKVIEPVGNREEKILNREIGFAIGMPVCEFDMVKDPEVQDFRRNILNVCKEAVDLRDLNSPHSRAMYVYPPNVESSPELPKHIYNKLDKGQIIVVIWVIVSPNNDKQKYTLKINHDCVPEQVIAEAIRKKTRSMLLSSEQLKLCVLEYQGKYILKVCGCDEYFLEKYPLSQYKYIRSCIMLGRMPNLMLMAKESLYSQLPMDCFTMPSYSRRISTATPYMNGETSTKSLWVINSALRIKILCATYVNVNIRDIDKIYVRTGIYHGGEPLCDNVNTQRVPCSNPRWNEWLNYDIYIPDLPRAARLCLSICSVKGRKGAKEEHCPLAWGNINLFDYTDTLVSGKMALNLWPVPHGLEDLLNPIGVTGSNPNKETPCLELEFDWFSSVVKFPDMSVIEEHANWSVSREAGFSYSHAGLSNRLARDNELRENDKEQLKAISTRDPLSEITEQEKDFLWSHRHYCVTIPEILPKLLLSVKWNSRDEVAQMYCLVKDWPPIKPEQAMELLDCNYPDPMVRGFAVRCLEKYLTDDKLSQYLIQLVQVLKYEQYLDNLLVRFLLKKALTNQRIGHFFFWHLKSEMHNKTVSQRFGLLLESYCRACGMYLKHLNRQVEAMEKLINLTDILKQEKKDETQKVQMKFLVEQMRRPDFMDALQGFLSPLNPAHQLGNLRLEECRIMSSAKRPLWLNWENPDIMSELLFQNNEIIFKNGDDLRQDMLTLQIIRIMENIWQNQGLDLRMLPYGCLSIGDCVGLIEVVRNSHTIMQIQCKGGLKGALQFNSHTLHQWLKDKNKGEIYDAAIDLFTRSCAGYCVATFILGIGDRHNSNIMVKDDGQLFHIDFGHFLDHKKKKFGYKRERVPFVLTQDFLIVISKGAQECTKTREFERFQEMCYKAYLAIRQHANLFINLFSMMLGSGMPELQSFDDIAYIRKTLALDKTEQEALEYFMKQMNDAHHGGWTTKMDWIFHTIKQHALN
T1 sequence (P27986 2-724 partner): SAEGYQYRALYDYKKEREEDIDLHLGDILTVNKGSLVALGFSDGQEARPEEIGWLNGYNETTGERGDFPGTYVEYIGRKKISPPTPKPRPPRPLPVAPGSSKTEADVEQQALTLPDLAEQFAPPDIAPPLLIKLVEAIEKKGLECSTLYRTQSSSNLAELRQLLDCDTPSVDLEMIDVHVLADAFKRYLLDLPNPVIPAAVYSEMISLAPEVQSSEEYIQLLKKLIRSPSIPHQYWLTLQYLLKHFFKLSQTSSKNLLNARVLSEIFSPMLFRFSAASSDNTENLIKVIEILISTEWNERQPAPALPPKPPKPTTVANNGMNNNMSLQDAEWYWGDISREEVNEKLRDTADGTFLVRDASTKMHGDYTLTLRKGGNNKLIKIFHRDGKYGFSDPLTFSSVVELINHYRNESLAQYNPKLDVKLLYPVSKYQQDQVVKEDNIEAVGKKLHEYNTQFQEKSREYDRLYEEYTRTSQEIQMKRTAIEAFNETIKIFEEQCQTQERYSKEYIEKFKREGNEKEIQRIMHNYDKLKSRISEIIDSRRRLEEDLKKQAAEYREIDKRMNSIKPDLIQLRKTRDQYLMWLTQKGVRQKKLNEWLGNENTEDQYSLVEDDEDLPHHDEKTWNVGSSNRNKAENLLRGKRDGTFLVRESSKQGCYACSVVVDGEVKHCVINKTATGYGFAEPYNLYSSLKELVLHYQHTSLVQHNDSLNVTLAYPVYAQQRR

pIC50: 5.37
SMILES: CCn1c2ccccc2c2cc(C(=O)OC(C)C)nc(-c3cccc4ccccc34)c21 [Z86, isopropyl 9-ethyl-1-(naphthalen-1-yl)-9 H-pyrido[3,4-b] indole-3-carboxylate]
